Test [1] has as its target T1, Serotonin 2 (5-HT2) receptor (Rattus norvegicus, UniProt P30994+P08909+P14842). Put plainly: Binding affinity towards 5-hydroxytryptamine 2 receptor using [3H]- 1-(4-bromo-2,5-dimethoxy-phenyl)-2-aminopropane (D) as radioligand. The format is protein assay.
The target of test [2] is T2, 5-hydroxytryptamine receptor 1B (Rattus norvegicus, UniProt P28564). Description: Evaluated for binding affinity towards 5-hydroxytryptamine 1B receptor.
Test [3] addresses T1, Serotonin 2 (5-HT2) receptor. Description: Binding affinity towards 5-hydroxytryptamine 2 receptor using [3H]- ketanserin as radioligand. The format is protein assay.
In test [4] the target is T3, 5-hydroxytryptamine receptor 1A (Rattus norvegicus, UniProt P19327).
T3 sequence (P19327 whole entry): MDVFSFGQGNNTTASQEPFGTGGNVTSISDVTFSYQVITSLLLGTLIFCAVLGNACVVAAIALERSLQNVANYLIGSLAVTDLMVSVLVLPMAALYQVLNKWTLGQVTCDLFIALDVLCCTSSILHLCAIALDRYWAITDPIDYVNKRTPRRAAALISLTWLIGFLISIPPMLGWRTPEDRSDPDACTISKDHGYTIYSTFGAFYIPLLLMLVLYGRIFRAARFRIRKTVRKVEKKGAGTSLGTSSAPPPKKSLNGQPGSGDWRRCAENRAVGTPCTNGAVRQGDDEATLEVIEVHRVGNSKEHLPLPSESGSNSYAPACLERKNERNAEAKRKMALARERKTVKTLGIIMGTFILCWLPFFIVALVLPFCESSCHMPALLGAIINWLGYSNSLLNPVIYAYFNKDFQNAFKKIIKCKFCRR
Description: Binding affinity towards 5-hydroxytryptamine 1A receptor.

The target in test [5] is T2, 5-hydroxytryptamine receptor 1B. Put plainly: Binding affinity against 5-HT1B serotonin receptor in rat striatum. The format is tissue-based.
The test system of test [6] is Rattus norvegicus. Put plainly: DOM appropriate response of animals/min at 1.0 mg/kg where stimulus generalization occurred (5/5 no of animals). The format is functional.
In test [7] the target is T3, 5-hydroxytryptamine receptor 1A. Put plainly: Binding affinity against 5-hydroxytryptamine 1A receptor in rat hippocampal tissue. The format is tissue-based, Hippocampus.
The test system of test [8] is Rattus norvegicus. Put plainly: DOM appropriate response rate in % at 1.0 mg/kg where stimulus generalization occurred (5/5 no of animals). In kind it is functional.
Test [9] is filed under the species Rattus norvegicus. Description: The dose at which the animals would show 50% responses on compound-appropriate lever. The format is functional.
Test [10] concerns Rattus norvegicus. Put plainly: 8-OH-DPAT appropriate response of animals/min rate in %0.2 mg/Kg where stimulus generalization occurred(7/7 no of animals). The format is functional.
In test [11] the test system is Rattus norvegicus. Description: 8-OH-DPAT appropriate response rate in % at 0.2 mg/kg where stimulus generalization occurred(7/7 no of animals). In kind it is functional.
Test [12] relates to Rattus norvegicus. Put plainly: The dose at which the animals would show 50% response on 8-OH-DPAT appropriate lever at a dose 0.2 mg/kg (7/7 no of animals). In kind it is functional.
The species named for test [13] is Rattus norvegicus. Put plainly: The dose at which the animals show 50% responses on drug-appropriate lever. The format is functional.
The test system of test [14] is Rattus norvegicus. Put plainly: DOM appropriate response rate in % at 0.6 mg/Kg where stimulus generalization occurred(5/5 no of animals). The format is functional.
The subject of test [15] is Rattus norvegicus. Description: 8-OH-DPAT appropriate response rate in % at 0.4 mg/kg where stimulus generalization occurred(4/5 no of animals). In kind it is functional.
The subject of test [16] is Rattus norvegicus. Description: 8-OH-DPAT appropriate response rate in % at 1.0 mg/kg where stimulus generalization occurred(4/5 no of animals). The format is functional.
Test [17] has as its system Rattus norvegicus. Description: 8-OH-DPAT appropriate response of animals/min rate in % 0.4 mg/kg where stimulus generalization occurred(4/5 no of animals). In kind it is functional.
Test [18] has as its system Rattus norvegicus. Description: DOM appropriate response of animals/min rate in % at 0.6 mg/Kg where stimulus generalization occurred(5/5 no of animals). The format is functional.
Test [19] relates to Rattus norvegicus. Description: DOM appropriate response of animals/min rate in % at 6.0 mg/Kg where stimulus generalization occurred(3/5 no of animals). The format is functional.
The subject of test [20] is Rattus norvegicus. Description: DOM appropriate response rate in % at 6.0 mg/Kg where stimulus generalization occurred(3/5 no of animals). In kind it is functional.
The species named for test [21] is Rattus norvegicus. Description: 8-OH-DPAT appropriate response rate in % at […] where stimulus generalization occurred(2/5 no of animals); No responding. In kind it is functional, organism-based. Also noted: dose 1.2 mg/kg.
The subject of test [22] is Rattus norvegicus. Put plainly: 8-OH-DPAT appropriate response of animals/min rate in % 1.0 mg/kg where stimulus generalization occurred(4/5 no of animals). In kind it is functional.
Test [23] relates to Rattus norvegicus. Description: 8-OH-DPAT appropriate response of animals/min rate in % 0.9 mg/kg where stimulus generalization occurred(4/7 no of animals). In kind it is functional.
Test [24] has as its system Rattus norvegicus. Put plainly: DOM appropriate response rate in % at 2.0 mg/Kg where stimulus generalization occurred(4/5 no of animals). In kind it is functional.
The species entered for test [25] is Rattus norvegicus. Description: DOM appropriate response rate in % at […] where stimulus generalization occurred(5/5 no of animals). In kind it is functional.
The test system of test [26] is Rattus norvegicus. Put plainly: 8-OH-DPAT appropriate response rate in % at 0.9 mg/kg where stimulus generalization occurred (4/7 no of animals). In kind it is functional.
Test [27] concerns Rattus norvegicus. Put plainly: 8-OH-DPAT appropriate response rate in % at 1.1 mg/kg where stimulus generalization occurred(4/5 no of animals). The format is functional.
Test [28] has as its system Rattus norvegicus. Put plainly: 8-OH-DPAT appropriate response of animals/min rate in % 0.8 mg/kg where stimulus generalization occurred(3/4 no of animals). The format is functional.
Test [29] concerns Rattus norvegicus. Description: DOM appropriate response rate in % at 5.0 mg/Kg where stimulus generalization occurred(4/5 no of animals). In kind it is functional.
For test [30], the system named is Rattus norvegicus. Description: The dose at which the animals would show 50% responses on DOM appropriate lever at a dose 6.0 mg/kg. The format is functional.
The subject of test [31] is Rattus norvegicus. Description: DOM appropriate response of animals/min rate in % at 2.0 mg/kg where stimulus generalization occurred(4/5 no of animals). In kind it is functional.
In test [32] the test system is Rattus norvegicus. Put plainly: 8-OH-DPAT appropriate response rate in % at 0.8 mg/kg where stimulus generalization occurred(3/4 no of animals). The format is functional.
The subject of test [33] is Rattus norvegicus. Description: DOM appropriate response of animals/min rate in % at 5.0 mg/Kg where stimulus generalization occurred(4/5 no of animals). In kind it is functional.
For test [34], the system named is Rattus norvegicus. Description: 8-OH-DPAT appropriate response of animals/min rate in % 1.1 mg/kg where stimulus generalization occurred(4/5 no of animals). In kind it is functional.
The species entered for test [35] is Rattus norvegicus. Put plainly: DOM appropriate response of animals/min rate in % at […] where stimulus generalization occurred(5/5 no of animals). In kind it is functional.

SMILES strings stand for the structures. Active and inactive are the calls of the source. The calls are words filed in the database; no cut-off is given here.

T2 sequence (P28564 whole entry): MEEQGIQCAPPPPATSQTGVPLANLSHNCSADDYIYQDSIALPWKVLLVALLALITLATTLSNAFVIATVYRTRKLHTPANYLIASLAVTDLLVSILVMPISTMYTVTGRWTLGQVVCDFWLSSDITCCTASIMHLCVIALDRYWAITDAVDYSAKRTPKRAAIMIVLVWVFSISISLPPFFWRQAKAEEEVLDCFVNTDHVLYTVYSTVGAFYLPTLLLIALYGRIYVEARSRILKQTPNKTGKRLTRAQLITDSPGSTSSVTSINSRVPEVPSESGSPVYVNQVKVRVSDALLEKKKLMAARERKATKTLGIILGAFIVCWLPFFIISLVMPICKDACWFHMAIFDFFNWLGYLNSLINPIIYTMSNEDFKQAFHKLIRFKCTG

Take `CCCN(CCC)CCc1c[nH]c2ccc(O)cc12`: the Ki in test [1] is 1 nM; in [2], 4300 nM; in [3], 450 nM; in test [4] it was 7.1 nM.
For `COc1cc(CC(C)N)c(OC)cc1C` (configuration not stated) [DOM], the Ki in [5] amounted to 2070 nM; in test [7], 5120 nM. The same compound returned a Response in test [6] of 12.8. For the same compound, the Responding in [8] was 92%.
`CCCN(CCC)C1CCc2cccc(OC)c2C1` (configuration not stated): the inhibition constant Ki in test [1] is 280 nM; in test [2], more than 1000 nM; in test [3], 3050 nM; in [4], 1.3 nM. Moreover, the 50% effective dose (ED50) in [9] amounted to 0.22 mg/kg.
As for `CCCN(CCC)C1CCc2cccc(O)c2C1` (configuration not stated) [8-OH-DPAT], the Ki in [1] is 635 nM; in test [3], 5350 nM. In addition, the Response in test [10] is reported as 16.8. For the same compound, the Responding in [11] turned out to be 88%. This compound showed an ED50 in test [12] of 0.08 mg/kg.
For `COc1ccc2[nH]cc(CCN(C)C)c2c1` [MEBUFOTENIN], the Ki in [2] amounted to 350 nM; in test [4], 7.8 nM. The compound further showed an ED50 in [13] of 1.43 mg/kg.
On to `CCCN(CCC)CCc1c[nH]c2ccc(OC)cc12`, for which the Ki in test [1] turned out to be 7.1 nM; in test [2], 1800 nM; in [3] it was 655 nM; in test [4], 4 nM. Besides, the Responding in [14] was 21%; in test [15], 15%; in [16], 67%; in test [20], 91%; in test [24] it was 51%; in test [25], 49%. Moreover, the Responding was determined as 56% in test [26], 81% in [27], 74% in [29] and 56% in [32]. In addition, the Response in test [17] amounted to 13.6; in [18] it was 10.2; in [19] it was 5.2; in [22], 5.6; in test [23], 13.6; in [28], 9.2. Also, the Response is 12 in test [31], 10.3 in [33], 4.1 in [34] and 12.3 in test [35]. The Responding entry in [21] is “inactive”. In test [30], the ED50 was found to be 1.68 mg/kg.

Broadly, the Ki is the dissociation constant of the complex between target and ligand, obtained from inhibition or displacement. Read a low Ki as higher affinity. A word on the ED50: it is the midpoint of the dose-response relation. A high value points to a need for a large dose.

For the origin of these results see ChEMBL document CHEMBL1124092 (J Med Chem, 1988).
